Data reported in patent US20250320557A1, “USE OF ABCF1 IN METHODS OF DIAGNOSING AND MONITORING INFLAMMATORY AND/OR AUTOIMMUNE DISEASE” (MYND Life Sciences Inc., priority 2021, published 2025).

Assays:
ABCF1 [1] = assay: qPCR of ABCF1 transcription in macrophage cell line RAW264.7 (dose response / time course); assay type: cell-based; conditions: 10 nM, 100 nM, 500 nM, 2 hours, normalized against GAPDH
Protocol: FIG. 3 illustrates the effect of psylocibin, psylocin and their analogs on ABCF1 transcription in a macrophage cell line. Briefly, the Macrophage cell line RAW264.7 (ATCC) were grown to 80% confluency in growth media (DMEM+ 10% FBS+ glutamine). Dilutions of psylocibin, psylocin and their analogs were made at desired final concentrations for a Dose response experiment. The concentrations' used for this experiment are: 10 nM, 100 nM, 500 nM for Psilocin, Psylocibin, 4-Acetoxy-N, N-dimthyltryptamine, O-Acetyl Psilocin Fumerate, and 4-acetoxyindole. The cells were incubated for 2 hours and then harvested for total RNA, which was extracted for real time RT-PCR specific for ABCF1. Untreated cells were used as negative control and Escitalopram at 0.3 mM was used as a positive control to activate ABCF1 expression for all the experiments. ES=escitalopram; PSYB=Psylocibin; PSIC=Psilocin; DMT=4-Acetoxy-N, N-dimthyltryptamine; APF=O-Acetyl Psilocin Fumerate, and AOI=4-acetoxyindole.
• 1. Macrophage cell line RAW264.7 (ATCC) were grown to 80% confluency in growth media (DMEM+10% FBS+glutamine). • 2. Dilutions of the drugs were made at desired final concentrations for a Dose response experiment. […]
• 1. […] Normalized against the expression level of GAPDH, the fold change expression level of ABCF1 was calculated and tabulated for all treatment conditions.

ABCF1 [2] = assay: real time RT-PCR for ABCF1 in RAW macrophages treated with Escitalopram; assay type: cell-based; conditions: 0.3 mM Escitalopram, 1 hour
Protocol: (§1) FIG. 1 illustrates that Escitalopram induces ABCF1 in a Macrophage cell line: RAW macrophages were plated at 1×10^5 cells/well and cultured for 2 days. The cells were incubated with 0.3 mM Escitalopram for 1 hour, and then harvested for total RNA, which was extracted for real time RT-PCR specific for ABCF1 and IL-4. CT values were normalized with CT value for the housekeeping gene from the DMSO control. The difference in the expression after drug treatment is consistent with polarization towards an M2-like phenotype (data were consistent in 3 separate experiments).

IL-4 = assay: real time RT-PCR for IL-4 in RAW macrophages treated with Escitalopram; assay type: cell-based; conditions: macrophage cell line (RAW); 0.3 mM Escitalopram, 1 hour; normalized to housekeeping gene, DMSO control
Protocol: as §1

ABCF1 [3] = conditions: peripheral blood mononuclear cells of patients responding to treatment; cited from earlier work

Structure (SMILES) | effect on ABCF1 transcription (ABCF1 [1]) | ABCF1 induction (in words) (ABCF1 [2]; RAW macrophages) | induction of ABCF1 (ABCF1 [2]; macrophage cell line (RAW), normalized to housekeeping gene, DMSO control) | induction of IL-4 (IL-4) | ABCF1 transcription in PBMCs (ABCF1 [3])
CN(C)CCc1c[nH]c2cccc(O)c12 [psylocin, Psilocin] | upregulate ABCF1 transcription | – | – | – | –
CN(C)CCc1c[nH]c2cccc(OP(=O)(O)O)c12 [psylocibin, Psylocibin] | upregulate ABCF1 transcription | – | – | – | –
CN(C)CCC[C@@]1(c2ccc(F)cc2)OCc2cc(C#N)ccc21 [Escitalopram] | – | induces ABCF1 | approximately 20 fold | approximately 5 fold | increased the transcription of a single gene: ABCF1
